Data from patent US12065404B2, “C4-carboxylic acid-substituted tryptamine derivatives and methods of using” (priority 2022, dated 2024).
Where “and” joins values, the source holds several entries; their conditions need not be identical. Equal entries are not always repeated.

What was measured:
[1] = Stability in enzyme-free control buffer; type: physicochemical; conditions: pH 7.4
Description: (§1) A fundamental evaluation in drug development is the assessment of absorption, distribution, metabolism, excretion, and pharmacokinetics (ADME/PK) (Eddershaw et al., 2000, Drug Discovery Today 5(9): 409-414). […] Drug stability upon exposure to human liver microsomes and liver S9 cellular fractions is a common in vitro assay to approximate in vivo, liver-based drug metabolism (Richardson et al., 2016 Drug Metabolism Letters 10:83-90). First-pass metabolism is also often approximated in vitro using intestinal microsome and cellular S9 fractions (Hatley et al., 2017, Biopharmaceuticals & Drug Disposition, 38(2):155-160). […] Supernatants were analyzed for the presence of candidate prodrugs (parent molecule) and psilocin (the predicted metabolite) using Orbitrap LC-MS (Thermo Scientific) using previously described methods (Menendez-Perdomo et al., 2021, J Mass Spectrom, 56: e4683). […] Assay concentrations (μM) of both parent ‘prodrug’ molecule and psilocin metabolite, as quantified through LC-MS using routine standard curve procedures, were plotted as functions of assay time (minutes). The metabolism rate (T1/2) was determined from the metabolism curve plot using the one phase decay feature of GraphPad PRISM software (Version 9.2.0). The quantity of parent prodrug at time zero was set as 100%.

[2] = In vitro metabolic stability / psilocin release, AB serum; type: in vitro ADME; conditions: 10% human AB serum
Description: as §1, with “100%. […]” for “100%.”

[3] = Mouse pharmacokinetic (PK) study, parent compound and psilocin metabolite in plasma; type: in vivo, C57Bl/6 mice; conditions: mouse; for Plasma concentration of psilocin: 24 h
Description: Briefly, the procedure was as follows. […] 19, 2022.

[4] = In vitro metabolic stability / psilocin release, liver fractions (HLM, HLS9); type: in vitro ADME, human; conditions: HLM and HLS9, 2 hours, 37° C.
Description: as §1, with “100%. […]” for “100%.”

SMILES: CN(C)CCc1c[nH]c2cccc(OP(=O)(O)O)c12 [psilocybin, reference compound]
- Stability in assay buffer [1]: stability of psilocybin was confirmed in assay buffer
- Stability / conversion to psilocin in serum [2]: stable in serum with no conversion to psilocin
- tmax ([3]; male, C57Bl/6, plasma, iv, 1 mg/kg i.v., individual animals, read-out: tmax of administered (parent) compound): 5 min
- Detectability of administered compound in plasma, i.v. administered animals ([3]; 1 mg/kg i.v.): only detectable in i.v. administered animals
- Detectability of administered compound in plasma, orally administered animals ([3]; oral, any dose (1, 3, 10 mg/kg)): not detectable in orally administered animals at any dose
- Plasma concentration of administered (parent) compound ([3]; 1 mg/kg i.v., 5 min, individual animals, 1 mg/kg): 0.0197 µg/mL and 0.0768 µg/mL and 0.334 µg/mL
- Plasma concentration of administered (parent) compound ([3]; 1 mg/kg i.v., 0.25 h, individual animals, 1 mg/kg): 0.00332 µg/mL and 0.00895 µg/mL and 0.0272 µg/mL
- Plasma concentration of administered (parent) compound ([3]; 1 mg/kg i.v., 0.5 h, individual animals, 1 mg/kg): No Peak and 2.35 ng/mL and 6.21 ng/mL
- Plasma concentration of administered (parent) compound ([3]; 1 mg/kg i.v., 1 h, individual animals, 1 mg/kg): No Peak
- Plasma concentration of administered (parent) compound ([3]; 1 mg/kg i.v., 2 h, individual animals): No Peak
- Plasma concentration of administered (parent) compound ([3]; 1 mg/kg i.v., 4 h, individual animals): No Peak
- Plasma concentration of administered (parent) compound ([3]; 1 mg/kg i.v., 6 h, individual animals): No Peak
- Plasma concentration of administered (parent) compound ([3]; 1 mg/kg i.v., 8 h, individual animals, 1 mg/kg): No Peak
- tmax of administered (parent) compound ([3]; 1 mg/kg i.v., individual animals): 5 min
- Cmax of administered (parent) compound ([3]; 1 mg/kg i.v., individual animals, 1 mg/kg): 0.0197 µg/mL and 0.0768 µg/mL and 0.334 µg/mL
- Cmax of administered (parent) compound ([3]; 1 mg/kg i.v., mean ± SD): 0.144 ± 0.167 µg/mL
- tmax of administered (parent) compound ([3]; 1 mg/kg i.v., mean ± SD): 5 ± 0 min
- Plasma concentration of psilocin ([3]; prodrug 1.56 mg/kg oral (nominal 1 mg/kg), individual animals): BLQ (BLQ denotes below the lower limit of quantitation (0.2 ng/ml).)
- Plasma concentration of psilocin ([3]; prodrug 3 mg/kg oral, individual animals): BLQ (BLQ denotes below the lower limit of quantitation (0.2 ng/ml).)
- Stability / conversion to psilocin in liver fractions [4]: stable in liver fractions with no conversion to psilocin
